Source: PMC11738990, “A small-molecule TNIK inhibitor targets fibrosis in preclinical and clinical models” (Nature Biotechnology, 2024)
Values joined by “and” are separate entries in the source; they are usually repeats but may differ in a detail not shown here. Identical values can stand only once. Like-named read-outs stand apart in the source and are kept apart here.

Legend:
[1] = system: primary lung fibroblasts from donors with IPF; assay: FMT by α-SMA, high-content analysis; assay type: cell-based, human; conditions: three donors with IPF; read-out: IC50, TGF-β-mediated α-SMA expression
Description: For the measurement of FMT by α-SMA, on the first day, human lung-derived primary lung fibroblast cells were seeded. After 2 d, the medium of the cells was refreshed. […] On the eighth day (72 h after triggering), cells were fixed with 4% formaldehyde, stained for α-SMA and with DAPI and then imaged and quantified via high-content analysis (HCA) (IN Cell Analyzer 2200, GE Healthcare).
(§1) Segmentation and quantification of α-SMA and FN1 immunoreactivity was carried out with an HCA algorithm, with density × area (D × A) output. Data normalization of raw α-SMA or FN1 (D × A) to percent inhibition values was performed on a plate-to-plate basis.
(§2) […]
(§3) μp is the average α-SMA or FN1 value of the positive control (TGF-β1 + 1 μM SB525334). μn is the average α-SMA or FN1 value of the vehicle control (TGF-β1 + 0.1% DMSO). Xi is the compound α-SMA or FN1 value. IC50 values for all compounds (if calculable, based on the point of inflection) were calculated with GraphPad Prism using non-linear fit of log (inhibitor) versus response (four parameter).
(§4) DAPI fluorescence was applied for HCA-based quantification of the number of imaged cells on a plate-to-plate basis.
(§5) Percent remaining cells = (Xi/μn) × 100%
(§6) μn is the average number of nuclei of the vehicle control (TGF-β1 + 0.1% DMSO). Xi is the compound number of nuclei.

NHDF cells = assay: Fibronectin and procollagen I in supernatant (ELISA); assay type: cell-based, human; conditions: TGF-β 10 ng/ml, 72 h
[2] = system: primary bronchial epithelial cells from healthy donors; assay: EMT by FN1, high-content analysis; assay type: cell-based, human; conditions: three healthy individuals
Description: For the measurement of EMT by FN1, on the first day, human primary bronchial epithelial cells were seeded. After 2 d, the medium of the cells was refreshed. […] After 1 h, all cells were treated with 5 ng ml^−1 TGF-β1. On the ninth day (72 h after triggering), cells were fixed with 4% formaldehyde, stained for FN1 and with DAPI and then imaged and quantified via HCA (IN Cell Analyzer 2200, GE Healthcare).
as §1, §2, §3, §4, §5, §6

mice = conditions: male mice, 180 mg/kg daily; ref Insilico Medicine, 2021; cited from earlier work

In the case of `CC(C)n1cnc(-c2ccc(F)cc2)c1-c1nc(C(=O)Nc2ccc(N3CCN(C)CC3)cc2)c[nH]1` [INS018_055, 2-[4-(4-fluorophenyl)-1-(prop-2-yl)imidazol-5-yl]-N-[4-(4-methylhexahydropyrazin-1-yl)phenyl]-1H-imidazole-4-carboxamide], the “Any TEAE” value (healthy subjects; MAD BID 7 d 30 mg N=6) is reported as 66.7%, the “Any TEAE” value (healthy subjects; MAD BID 7 d 60 mg N=6) is reported as 100.0% and the “Any TEAE” value (healthy subjects; MAD BID 7 d 90 mg N=6) is reported as 100.0%. The Abdominal distension (healthy subjects; MAD any dose N=18) was 5.6%, the Anaemia (healthy subjects; MAD any dose N=18) was 11.1% and the “Any TEAE” value (healthy subjects; MAD any dose N=18) was 88.9%. For the same compound, the Arthralgia (healthy subjects; MAD any dose N=18) was 5.6%, the Basophil count increased (healthy subjects; MAD any dose N=18) was 5.6% and the “Blood and lymphatic system disorders” value (healthy subjects; MAD any dose N=18) was 11.1%. The Blood bilirubin increased (healthy subjects; MAD any dose N=18) was 5.6%, the “Blood creatine phosphokinase increased” value (healthy subjects; MAD any dose N=18) was 5.6% and the Blood fibrinogen decreased (healthy subjects; MAD any dose N=18) was 11.1%. For the same compound, the Blood pressure decreased (healthy subjects; MAD any dose N=18) was 5.6%, the Blood pressure increased (healthy subjects; MAD any dose N=18) was 5.6% and the Cardiac disorders (healthy subjects; MAD any dose N=18) was 5.6%. The Dizziness (healthy subjects; MAD any dose N=18) was 22.2%, the Electrolyte imbalance (healthy subjects; MAD any dose N=18) was 5.6% and the Epistaxis (healthy subjects; MAD any dose N=18) was 11.1%. The Fecal occult positive (healthy subjects; MAD any dose N=18) was 55.6%, the Gastrointestinal disorders (healthy subjects; MAD any dose N=18) was 22.2% and the Haematuria (healthy subjects; MAD any dose N=18) was 16.7%. It also gave a Headache (healthy subjects; MAD any dose N=18) of 16.7%, a Hepatic enzyme increased (healthy subjects; MAD any dose N=18) of 5.6% and a Hyperphosphataemia (healthy subjects; MAD any dose N=18) of 5.6%. The Hypertriglyceridaemia (healthy subjects; MAD any dose N=18) was 50.0%, the Hyponatraemia (healthy subjects; MAD any dose N=18) was 5.6% and the Infections and infestations (healthy subjects; MAD any dose N=18) was 5.6%. For the same compound, the Influenza like illness (healthy subjects; MAD any dose N=18) was 27.8%, the Investigations (healthy subjects; MAD any dose N=18) was 77.8% and the Limb discomfort (healthy subjects; MAD any dose N=18) was 0.0%. For the same compound, the “Musculoskeletal and connective tissue disorders” value (healthy subjects; MAD any dose N=18) was 33.3%, the Nasal obstruction (healthy subjects; MAD any dose N=18) was 5.6% and the Nausea (healthy subjects; MAD any dose N=18) was 5.6%. The Nervous system disorders (healthy subjects; MAD any dose N=18) was 38.9%, the Pain in extremity (healthy subjects; MAD any dose N=18) was 27.8% and the Pruritus (healthy subjects; MAD any dose N=18) was 5.6%. The Pyrexia (healthy subjects; MAD any dose N=18) was 11.1%, the Rash (healthy subjects; MAD any dose N=18) was 16.7% and the “Renal and urinary disorders” value (healthy subjects; MAD any dose N=18) was 16.7%. For the same compound, the “Respiratory, thoracic and mediastinal disorders” value (healthy subjects; MAD any dose N=18) was 16.7%, the Sinus bradycardia (healthy subjects; MAD any dose N=18) was 5.6% and the “Skin and subcutaneous tissue disorders” value (healthy subjects; MAD any dose N=18) was 22.2%. The “Total bile acids increased” value (healthy subjects; MAD any dose N=18) was 5.6%, the Vomiting (healthy subjects; MAD any dose N=18) was 5.6% and the “White blood cells urine positive” value (healthy subjects; MAD any dose N=18) was 11.1%. For the same compound, the “Any TEAE” value (healthy subjects; SAD 30 mg N=6) was 83.3%, the “Any TEAE” value (healthy subjects; SAD 60 mg N=6) was 33.3% and the “Any TEAE” value (healthy subjects; SAD 120 mg N=6) was 50.0%. For the same compound, the “Any TEAE” value (healthy subjects; SAD any dose N=18) was 55.6%, the Blood glucose increased (healthy subjects; SAD any dose N=18) was 0.0% and the “Blood uric acid increased” value (healthy subjects; SAD any dose N=18) was 5.6%. The Body temperature increased (healthy subjects; SAD any dose N=18) was 5.6%, the Cardiac disorders (healthy subjects; SAD any dose N=18) was 11.1% and the Fecal occult positive (healthy subjects; SAD any dose N=18) was 27.8%. The Gastrointestinal disorders (healthy subjects; SAD any dose N=18) was 5.6%, the Headache (healthy subjects; SAD any dose N=18) was 5.6% and the Hypertriglyceridaemia (healthy subjects; SAD any dose N=18) was 27.8%. For the same compound, the Hypotension (healthy subjects; SAD any dose N=18) was 5.6%, the Investigations (healthy subjects; SAD any dose N=18) was 33.3% and the Nervous system disorders (healthy subjects; SAD any dose N=18) was 5.6%. The Sinus bradycardia (healthy subjects; SAD any dose N=18) was 11.1%, the Vascular disorders (healthy subjects; SAD any dose N=18) was 5.6% and the “White blood cells urine positive” value (healthy subjects; SAD any dose N=18) was 0.0%. For the same compound, the Noninfective gingivitis (healthy subjects; in vivo) was 5.6%, the “Upper respiratory tract infection” value (healthy subjects; in vivo) was 5.6% and the IC50 [1] was 50 nM and 79 nM and 63 nM. For the same compound, the IC50 (NHDF cells; read-out: IC50, fibronectin in supernatant) was roughly 135 nM, the IC50 (NHDF cells; read-out: IC50, procollagen I in supernatant) was roughly 232 nM and the IC50 [2] was 63 nM (2×) and 500 nM. For the same compound, the “reduction of erythrocyte count” value (mice) was 19.8%.
